Laboratory results taken from US8349851B2, “JAK kinase modulating compounds and methods of use thereof” (Ambit Biosciences Corp., priority 2009, dated 2013).
Read-outs that look alike come from different tables or passages of the source.

Tests used:
JAK3 = biological target: T1, JAK3 (Homo sapiens, UniProt P52333); test: Competition binding assay, JAK3; settings: read-out: Binding Assay: JAK3 (active_KD, ENZ)
T1 construct: made in house
Text: (§1) Competition Binding Assay to Determine Binding Constants (Kd) of the Compounds Against JAK Kinases
(§2) Competition binding assays used herein were developed, validated and performed as described in Fabian et al., Nature Biotechnology 2005, 23,329-336. Kinases were produced as fusions to T7 phage (See, Fabian et al. or WO04/015142) or alternatively, the kinases were expressed in HEK-293 cells and subsequently tagged with DNA for PCR detection (See, WO08/005310). For the binding assays, streptavidin-coated magnetic beads were treated with biotinylated affinity ligands for 30 min at rt to generate affinity resins. The liganded beads were blocked with excess biotin and washed with blocking buffer (SeaBlock (Pierce), 1% BSA, 0.05% Tween 20, 1 mM DTT) to remove unbound ligand and to reduce non-specific binding. […] Test compounds were prepared as 100× stocks in DMSO and rapidly diluted into the aqueous environment. DMSO was added to control assays lacking a test compound. Primary screen interactions were performed in polypropylene 384-well plates in a final volume of 34 μL, while Kd determinations were performed in polystyrene 96-well plates in a final volume of 135 μL. […] The kinase concentration in the eluates was measured by quantitative PCR. Each kinase was tested individually against each compound. Kds were determined using eleven serial threefold dilutions. A selectivity score, which is a quantitative measure of selectivity of a compound against a panel of enzymes, may be calculated for a compound by dividing the number of enzymes for which a compound meets a set criteria, (for example, a binding constant of 100 nM or less), by the total number of enzymes tested.

[1] = test system: csTF-1 cells (GM-CSFR/JAK2/STAT5 pathway); test: csTF-1 cell-based reporter assay; set-up: species or system human; settings: GM-CSF at 2 ng/mL, 4 hours, read-out: Cell Assay: CS0017: CS TF-1 reporter assay: IC50
Experimental: csTF-1 Cell-based Reporter Assay
csTF-1 cells are derived from the human erythroleukemia cell line that is growth dependent on GM-CSF and has an intact GM-CSFR/JAK2/STAT5 pathway. The cell line contains stably integrated beta-lactamase reporter gene under the control of the […] (irf 1) response element recognized by the activated transcription factor STATS. csTF-1 cells (Invitrogen K1219) were washed with assay media (97% OPTIMEM/0.5% dialyzed FBS/0.1 mM NEAA/1 mM Na pyr/P/S) and seeded in the same media at 5×10^5 cell/mL in T150 flask. After 16 hour incubation, cells were seeded at 2×10^5 cell/well in 50 μl volume, into Costar, clear bottom, 96-well assay plates. Serial dilutions of compounds were added to the plates with final DMSO concentration at 0.5% and GM-CSF at 2 ng/mL and the plates were then incubated at […] and 5% CO2 for 4 hours. The plates were brought to room temperature before adding Substrate Mixture according to manufacturer's protocol (Invitrogen, Catalog #K1085). The assay plates containing the substrate mixture were incubated in the dark at room temperature for 2 hours. Blue and green fluorescence was measured with excitation at 409 nm and emission at 460 nm (for blue) and excitation at 409 nm and emission at 530 nm (for green) using Spectra Max Gemini EM.

JAK2 = biological target: T2, JAK2 (Homo sapiens, UniProt O60674); test: Competition binding assay, JAK2; settings: read-out: Binding Assay: JAK2 (active_KD)
T2 construct: made in house
T2 sequence (O60674 849-1124 limits assumed): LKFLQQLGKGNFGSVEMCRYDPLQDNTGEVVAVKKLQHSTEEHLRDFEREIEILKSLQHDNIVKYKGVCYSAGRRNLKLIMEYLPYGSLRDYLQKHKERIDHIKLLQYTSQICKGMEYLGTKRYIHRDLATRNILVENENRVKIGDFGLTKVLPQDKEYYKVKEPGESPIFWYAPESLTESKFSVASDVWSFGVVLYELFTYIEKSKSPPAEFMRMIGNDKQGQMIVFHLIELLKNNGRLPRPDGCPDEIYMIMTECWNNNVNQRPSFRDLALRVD
Text: as §1, §2

AuroraB = biological target: T3, AuroraB (Homo sapiens, UniProt Q96GD4); test: Competition binding assay, Aurora B
T3 construct: made in house
T3 sequence (Q96GD4 whole entry): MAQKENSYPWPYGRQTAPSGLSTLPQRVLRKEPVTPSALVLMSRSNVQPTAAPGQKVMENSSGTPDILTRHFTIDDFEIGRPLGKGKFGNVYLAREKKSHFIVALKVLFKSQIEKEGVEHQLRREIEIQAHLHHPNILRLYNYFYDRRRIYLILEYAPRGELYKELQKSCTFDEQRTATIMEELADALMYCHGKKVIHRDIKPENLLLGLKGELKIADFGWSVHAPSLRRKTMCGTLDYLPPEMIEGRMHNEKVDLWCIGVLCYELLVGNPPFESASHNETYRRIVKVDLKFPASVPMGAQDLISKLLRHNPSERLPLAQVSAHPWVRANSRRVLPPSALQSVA
Text: Methods for determining binding constant against Aurora B kinase are known to one of skill in the art. Exemplary methods are described in U.S. provisional application No. 61/294,413, and Fabian et al., Nature Biotechnology 2005, 23,329-336.
as §2

T1 sequence (P52333 822-1111 limits assumed): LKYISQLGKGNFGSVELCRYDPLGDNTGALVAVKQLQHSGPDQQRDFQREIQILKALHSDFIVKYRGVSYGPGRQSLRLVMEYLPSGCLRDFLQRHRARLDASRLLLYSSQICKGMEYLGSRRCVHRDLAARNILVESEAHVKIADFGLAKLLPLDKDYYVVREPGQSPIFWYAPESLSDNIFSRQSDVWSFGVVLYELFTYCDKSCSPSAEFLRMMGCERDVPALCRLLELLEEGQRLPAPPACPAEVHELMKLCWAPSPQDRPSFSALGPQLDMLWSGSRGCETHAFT

Compound | Kd (JAK3) [nM] | IC50 ([1]; Homo sapiens) [nM] | Kd (JAK2) [nM] | Kd (AuroraB) [nM] | IC50 [1] [nM]
COc1ccc2c(Nc3cc[nH]n3)nc(C(O)c3ccc(F)cc3)nc2c1 (racemic) [Example 29, (R,S)-(4-(1H-pyrazol-3-ylamino)-7-methoxyquinazolin-2-yl)(4-fluorophenyl)methanol] | 10 to 100 | ≤ 100 | ≤ 1 | > 200 | –
Fc1ccc(C(F)(F)c2nc(Nc3cc[nH]n3)c3ccccc3n2)cc1 [Example 9, 2-(difluoro(4-fluorophenyl)methyl)-N-(1H-pyrazol-3-yl)quinazolin-4-amine] | 10 to 100 | ≤ 100 | ≤ 1 | > 200 | –
Cc1ccc2c(Nc3cc(C)[nH]n3)nc(C(O)c3ccc(F)cc3)nc2c1 (racemic) [Example 25, (R,S)-(4-fluorophenyl)(7-methyl-4-(5-methyl-1H-pyrazol-3-ylamino)quinazolin-2-yl)methanol] | 10 to 100 | ≤ 100 | ≤ 1 | > 200 | –
COc1cccc2c(Nc3cc[nH]n3)nc(C(=O)c3ccc(F)cc3)nc12 [Example 35, (4-(1H-pyrazol-3-ylamino)-8-methoxyquinazolin-2-yl)(4-fluorophenyl)methanone] | > 100 | > 500 | > 10 | 50 to 200 | –
(4-(1H-pyrazol-3-ylamino)quinazolin-2-yl)bis(4-fluorophenyl)methanol [Example 48] | > 100 | – | > 10 | > 200 | > 500
Cc1cc(Nc2nc(C(F)(F)c3ccc(F)cc3)nc3c(F)cccc23)n[nH]1 [Example 34, 2-(difluoro(4-fluorophenyl)methyl)-8-fluoro-N-(5-methyl-1H-pyrazol-3-yl)quinazolin-4-amine] | 10 to 100 | ≤ 100 | ≤ 1 | > 200 | –
O=C(c1cccc(F)c1)c1nc(Nc2cc[nH]n2)c2ccccc2n1 [Example 2, (4-(1H-pyrazol-3-ylamino)quinazolin-2-yl)(3-fluorophenyl)methanone] | > 100 | > 500 | > 10 | > 200 | –
OC(c1ccc(F)cc1)c1nc(Nc2cc[nH]n2)c2ccc(I)cc2n1 (racemic) [Example 23, (R,S)-(4-(1H-pyrazol-3-ylamino)-7-iodoquinazolin-2-yl)(4-fluorophenyl)methanol] | > 100 | 100 to 500 | 1 to 10 | > 200 | –
Cc1cc(Nc2nc(C(O)c3ccc(F)cc3)nc3cc(F)ccc23)n[nH]1 (racemic) [Example 47, (R,S)-(7-fluoro-4-(5-methyl-1H-pyrazol-3-ylamino)quinazolin-2-yl)(4-fluorophenyl)methanol] | 10 to 100 | 100 to 500 | ≤ 1 | > 200 | –
Fc1ccc(C(F)c2nc(Nc3cc[nH]n3)c3ccccc3n2)cc1 (racemic) [Example 7, (R,S)-2-(fluoro(4-fluorophenyl)methyl)-N-(1H-pyrazol-3-yl)quinazolin-4-amine] | 10 to 100 | 100 to 500 | ≤ 1 | > 200 | –
COc1ccc2c(Nc3cc(C)[nH]n3)nc(C(F)(F)c3ccc(F)cc3)nc2c1 [Example 32, 2-(difluoro(4-fluorophenyl)methyl)-7-methoxy-N-(5-methyl-1H-pyrazol-3-yl)quinazolin-4-amine] | 10 to 100 | ≤ 100 | ≤ 1 | > 200 | –
COC(c1ccc(F)cc1)c1nc(Nc2cc(C)[nH]n2)c2ccccc2n1 (racemic) [Example 13, (R,S)-2-((4-fluorophenyl)(methoxy)methyl)-N-(5-methyl-1H-pyrazol-3-yl)quinazolin-4-amine] | 10 to 100 | 100 to 500 | ≤ 1 | > 200 | –

The remaining lines, values ahead:

Kd (JAK3) [nM] | IC50 ([1]; Homo sapiens) [nM] | Kd (JAK2) [nM] | Kd (AuroraB) [nM] | IC50 [1] [nM] | Compound
> 100 | 100 to 500 | > 10 | > 200 | – | Cc1cc(Nc2nc(C(=O)c3ccc(F)cc3)nc3cc(C(F)(F)F)ccc23)n[nH]1 [Example 17, (4-fluorophenyl)(4-(5-methyl-1H-pyrazol-3-ylamino)-7-(trifluoromethyl)quinazolin-2-yl)methanone]
≤ 10 | 100 to 500 | ≤ 1 | > 200 | – | Cc1cc(Nc2nc(C(O)c3ccc(F)cc3)nc3cc(OC4CCNCC4)ccc23)n[nH]1 (centres unmarked) [Example 41, (4-fluorophenyl)(4-(5-methyl-1H-pyrazol-3-ylamino)-7-(piperidin-4-yloxy)quinazolin-2-yl)methanol]
> 100 | > 500 | > 10 | > 200 | – | N#Cc1cc(Nc2nc(C(O)c3ccc(F)cc3)nc3ccccc23)n[nH]1 (racemic) [Example 15, (R,S)-3-(2-((4-fluorophenyl)(hydroxy)methyl)quinazolin-4-ylamino)-1H-pyrazole-5-carbonitrile]
10 to 100 | ≤ 100 | ≤ 1 | > 200 | – | OC(c1ccc(F)cc1)c1nc(Nc2cc[nH]n2)c2ccccc2n1 (racemic) [Example 6, (R,S)-(4-(1H-pyrazol-3-ylamino)quinazolin-2-yl)(4-fluorophenyl)methanol]
10 to 100 | ≤ 100 | ≤ 1 | > 200 | – | Cc1cc(Nc2nc(C(F)(F)c3ccc(F)cc3)nc3cc(F)ccc23)n[nH]1 [Example 20, 2-(difluoro(4-fluorophenyl)methyl)-7-fluoro-N-(5-methyl-1H-pyrazol-3-yl)quinazolin-4-amine]
> 100 | > 500 | > 10 | > 200 | – | Cc1cc(Nc2nc(C(O)(c3ccc(F)cc3)c3ccc(F)cc3)nc3ccccc23)n[nH]1 [bis-(4-fluoro-phenyl)-[4-(5-methyl-1H-pyrazol-3-ylamino)-quinazolin-2-yl]-methanol]
10 to 100 | ≤ 100 | 1 to 10 | > 200 | – | COc1ccc2c(Nc3cc(C)[nH]n3)nc(C(=O)c3ccc(F)cc3)nc2c1 [Example 30, (4-fluorophenyl)(7-methoxy-4-(5-methyl-1H-pyrazol-3-ylamino)quinazolin-2-yl)methanone]
≤ 10 | ≤ 100 | ≤ 1 | > 200 | – | Cc1cc(Nc2nc(C(O)c3ccc(F)cc3)nc3cc(OCCCO)ccc23)n[nH]1 (racemic) [Example 40, (R,S)-3-(2-((4-fluorophenyl)(hydroxy)methyl)-4-(5-methyl-1H-pyrazol-3-ylamino)quinazolin-7-yloxy)propan-1-ol]
≤ 10 | ≤ 100 | ≤ 1 | 50 to 200 | – | CCOCc1ccc2c(Nc3cc(C)[nH]n3)nc(C(F)(F)c3ccc(F)cc3)nc2c1 [Example 51, 2-(Difluoro(4-fluorophenyl)methyl)-7-(ethoxymethyl)-N-(5-methyl-1H-pyrazol-3-yl)quinazolin-4-amine]
10 to 100 | ≤ 100 | ≤ 1 | > 200 | – | Cc1ccc2c(Nc3cc(C)[nH]n3)nc(C(=O)c3ccc(F)cc3)nc2c1 [Example 24, (4-fluorophenyl)(7-methyl-4-(5-methyl-1H-pyrazol-3-ylamino)quinazolin-2-yl)methanone]
≤ 10 | 100 to 500 | ≤ 1 | > 200 | – | Cc1cc(Nc2nc(C(O)c3ccc(F)cc3)nc3cc(OCCN4CCOCC4)ccc23)n[nH]1 (racemic) [Example 38, (R,S)-(4-fluorophenyl)(4-(5-methyl-1H-pyrazol-3-ylamino)-7-(2-morpholinoethoxy)quinazolin-2-yl)methanol]
